Measured values: PubChem BioAssay (NCI)
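Interpolation was linear, between the two tested concentrations surrounding the appropriate level; five concentrations were tested over 48 hours in 96-well plates. GI50 is the concentration that inhibits growth by half. At the TGI there is no net growth.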

Legend:
Assay in all cases: inhibition of tumour cell growth, NCI panel, 48 h
[1] = system: DLD-1 colon
[2] = system: DMS 114 small cell lung
[3] = system: IGROV1 ovarian
[4] = system: RPMI-8226 leukemia
[5] = system: RXF 393 renal
[6] = system: SF-295 CNS
[7] = system: SW-620 colon
[8] = system: NCI-H226 lung
[9] = system: NCI/ADR-RES ovarian
[10] = system: PC-3 prostate

| SMILES | TGI [1] [µM] | TGI [2] [µM] | TGI [3] [µM] | TGI [4] [µM] | TGI [5] [µM] | TGI [6] [µM] | TGI [7] [µM] | TGI [8] [µM] | GI50 [1] [µM] | GI50 [2] [µM] | GI50 [3] [µM] | GI50 [8] [µM] | GI50 [4] [µM] | GI50 [5] [µM] | GI50 [6] [µM] | GI50 [7] [µM] | GI50 [9] [µM] | TGI [9] [µM] | GI50 [10] [µM] | TGI [10] [µM] |
| --- | --- | --- | --- | --- | --- | --- | --- | --- | --- | --- | --- | --- | --- | --- | --- | --- | --- | --- | --- | --- |
| CCOC(=O)N1C/C(=C\c2ccc(N(C)C)cc2)C(=O)/C(=C/c2ccc(N(C)C)cc2)C1 | > 100 | > 100 | > 100 | > 100 | > 100 | > 100 | > 100 | – | – | – | – | – | – | – | – | – | – | – | – | – |
| Nc1ncnc2c1ncn2C1(CO)OC(CO)C(O)C1O (stereo unspecified) | > 100 | > 100 | – | > 100 | > 100 | > 100 | > 100 | > 100 | – | – | – | – | – | – | – | – | – | – | – | – |
| CC[P+](C)(C)CC | > 100 | > 100 | > 100 | > 100 | > 100 | > 100 | > 100 | > 100 | – | – | – | – | – | – | – | – | – | – | – | – |
| Cc1ccc(C)c(NC(=O)C(=O)C(C2C(C)CC(=O)C2CC(=O)O)[N+](=O)[O-])c1 (stereo unspecified) | > 100 | > 100 | > 100 | > 100 | > 100 | > 100 | > 100 | > 100 | – | – | – | – | – | – | – | – | – | – | – | – |
| O=S(=O)([O-])c1ccc(C=Nc2ccccc2)c([O-])c1.O=S(=O)([O-])c1ccc(C=Nc2ccccc2)c([O-])c1.[Co+2] | > 100 | > 100 | > 100 | > 100 | > 100 | > 100 | > 100 | > 100 | 5.18 | > 100 | > 100 | 17.7 | > 100 | > 100 | > 100 | 6.96 | – | – | – | – |
| CCCOC(=O)C1C(c2ccc(OC)cc2)NC(c2ccc(OC)cc2)C(C(=O)OCCC)S1(=O)=O (stereo unspecified) | > 100 | > 100 | > 100 | > 100 | > 100 | > 100 | > 100 | > 100 | > 100 | > 100 | > 100 | > 100 | > 100 | > 100 | > 100 | > 100 | – | – | – | – |
| COc1ccc(C)cc1-c1ccc(-c2cc(C)ccc2OC)o1 | > 100 | > 100 | > 100 | > 100 | – | > 100 | > 100 | > 100 | – | – | – | – | – | – | – | – | – | – | – | – |
| COc1ccc(C2=NC(CO)[C@H](c3ccccc3)O2)cc1OC (stereo partly specified) | > 100 | > 100 | > 100 | – | – | > 100 | > 100 | > 100 | – | – | – | – | – | – | – | – | – | – | – | – |
| COC(=O)C(C(=O)C(=O)Nc1nc2ccc(OC)cc2s1)c1cnc2ccccc2n1 (stereo unspecified) | > 100 | – | > 100 | > 100 | > 100 | > 100 | > 100 | > 100 | – | – | – | – | – | – | – | – | – | – | – | – |
| O=S(=O)(c1ccccc1)C1(C2(S(=O)(=O)c3ccccc3)CCN=N2)CCN=N1 (stereo unspecified) | > 100 | > 100 | > 100 | > 100 | > 100 | > 100 | > 100 | > 100 | – | – | – | – | – | – | – | – | – | – | – | – |
| NNC(=O)C(=O)N/N=C1\CCCC1C(=O)CCC(=O)Nc1cccc(Cl)c1 (stereo unspecified) | > 100 | > 100 | > 100 | > 100 | > 100 | > 100 | > 100 | > 100 | – | – | – | – | – | – | – | – | – | – | – | – |
| CCOC(=O)C(c1ccsc1)P(=O)(OCC)OCC (stereo unspecified) | 44.9 | 29 | – | > 100 | 28.9 | 34 | 30.8 | 35.8 | – | – | – | – | – | – | – | – | – | – | – | – |
| O=C1/C(=C/c2ccc([N+](=O)[O-])s2)Oc2ccc(Br)cc21 | – | – | 0.964 | 1.14 | 0.813 | 3.35 | 0.664 | 2.84 | – | – | 0.309 | 1.14 | 0.278 | 0.274 | 1.24 | 0.242 | 0.497 | 4.91 | 0.251 | 0.774 |
| O=[N+]([O-])c1cc2c(ccc3ccccc32)o1 | – | – | 5.56 | 6.81 | 0.789 | 3.34 | 5.91 | 4.22 | – | – | 0.703 | 1.27 | 1.13 | 0.311 | 0.347 | 0.404 | 0.635 | 5.96 | 1.85 | 14.5 |
| O=C1C=CC(=O)N1c1ccc2ccccc2c1 | – | – | 52 | 4.97 | 12.9 | > 100 | 3.62 | 33.3 | – | – | 16.6 | 16.8 | 2 | 3.98 | > 100 | 1.79 | 21.5 | 55.7 | 18.1 | 37.8 |
| COc1cccc(/C=C2\COc3ccc(O)c(O)c3C2=O)c1OC | – | – | 10.9 | 8.7 | 3.42 | 19.1 | 5.44 | 51.2 | – | – | 2.62 | 10.7 | 0.547 | 1.76 | 6.07 | 2.1 | 3.48 | 97.2 | 2.22 | 11 |
| CC(=O)CC(=O)Nc1ccc(OS(N)(=O)=O)cc1 | > 100 | > 100 | > 100 | > 100 | > 100 | > 100 | > 100 | > 100 | – | – | – | – | – | – | – | – | – | – | – | – |
| COC(=O)c1cc2c3cc(Cl)ccc3[nH]c2c2ncccc12 | – | – | > 100 | > 100 | > 100 | > 100 | > 100 | > 100 | – | – | 77.4 | > 100 | > 100 | > 100 | > 100 | > 100 | > 100 | > 100 | > 100 | > 100 |
| CCOC(=O)CCC(NC(=O)c1ccc(Oc2nc3cc(N)cc(N)c3nc2-c2ccccc2)cc1)C(=O)OCC (stereo unspecified) | – | – | 78.7 | > 100 | > 100 | > 100 | > 100 | 25 | – | – | 18.2 | 2.94 | > 100 | 43.9 | 40.6 | 29.5 | 27.5 | > 100 | 73.5 | > 100 |
| NNC(=S)N/N=C(\c1nc2ccc(Cl)cc2[nH]c1=O)C(O)c1cccc([N+](=O)[O-])c1 (stereo unspecified) | – | > 24.5 | > 100 | > 63.7 | > 100 | > 100 | 41.9 | > 100 | – | – | – | – | – | – | – | – | – | – | – | – |
